For data set [1], the target named is T1, Hsp90β/p23 interactions (Homo sapiens, UniProt P08238).
T1 construct: expressed in transfected cells; also with FL-eGFP reporter (293Tβ-FG) and as xenografts in nude mice
Description: HTS dose response, 293T cells stably expressing Hsp90β/p23 split RL reporters. It counts as cell-based. As to conditions: inhibition of bioluminescence signals by 50% vs carrier control; 8 point dose response 0.156-20 μM; 24 h. Here is the method:
Novel Hsp90 inhibitors using a commercial 30,176 small molecule chemical compound library with unknown targets and molecular mechanisms (FIG. 9B) were also identified. 293T cells stably expressing Hsp90α/p23 or Hsp90β/p23 split RL reporters were treated with each compound at 8.3 μM.
Baseline complemented RL activities were determined 90 mins after addition of 20 μl of ENDUREN® (10 μM final concentration) (Promega, Madison, Wis.) using the Analyst GT (Molecular Device, Sunnyvale, Calif.), with an acquisition time of 0.2 sec per well. Cells were incubated with compounds for 24 h prior to re-determination of complemented RL activities, and normalized to the mean RL activities of untreated cells in columns 1-2. Another small molecule chemical library with 30,176 compounds (SPECS, Wakefield, R.I.) was also used in screening modulators of Hsp90(α/β)/p23 inhibitors (at 8.3 μM, one drug per well for initial screening). For dose response/confirmation assay the compounds were tested in duplicate in an 8 point (0.156-20 μM) dose response assay for RL activities for both Hps90(α/β)/p23 interactions. The effect of each compound on cell proliferation at 20 μM was determined using Cell Titer-Blue assay in duplicate wells. […]

In data set [2] the test system is endogenous Hsp90(α/β)/p23 interactions. Description: Co-immunoprecipitation of Hsp90(α/β)/p23. Particulars: 5 μM, 24 h, 293T cells. The format is cell-based, human. As for the experimental part:
FIG. 5B is a digital image of a western blot analysis illustrating the effects of compounds CP1, CP9 and CP18 on disruption of Hsp90α/p23 and Hsp90β/p23 as determined by co-immunoprecipitation using antibodies against p23 and probing with Hsp90α- and Hsp90β-specific antibodies. The blot was probed with antibodies against p23 to ensure similar immunoprecipitation efficiency. Cells treated with 2 μM of PU-H71 served as a positive control.
Cells treated with PU-H71 (2 μM) served as a positive control.
Cells treated with 2 μM of PU-H71 served as a positive control. Western blotting of Hsp70, phosphorylated and total Akt and co-immunoprecipitation of Hsp90(α/β)/p23 interactions was performed as described Inglese et al., (2006) Proc. Nat. Acad. Sci. U.S.A. 103: 11473-11478, incorporated herein by reference in its entirety. The expression of Raf-1 was determined using rabbit polyclonal antibodies against Raf-1 (0.5 μg/ml, Abcam).

Data set [3] deals with Hsp90 client proteins. The data set can be described thus: Western blotting of Hsp90 client proteins in normal MEF cells. It counts as cell-based. Particulars: normal mouse embryonic fibroblasts. The text has this:
CP9 had no effect on the expression of the Hsp90 client proteins in normal mouse embryonic fibroblasts (MEF) cells (FIG. 10C).
For orientation: A western blot detects proteins with antibodies after separation by electrophoresis.

The subject of data set [4] is U87-MG cells. Description: Alamar Blue cell proliferation. It counts as cell-based, human. Particulars: 24 h. As for the experimental part: FIG. 6A is a series of graphs illustrating the effect of CP9 on cell proliferation determined by an Alamar Blue assay. The indicated cancer cell lines were treated with different concentrations of CP9 for 24 h prior to incubation with Alamar blue for 4 h. The Hsp90 inhibitors PU-H71 and 17AAG were used as positive controls. Emissions at 570 nm in CP9-treated cells were normalized to that of carrier control-treated cells. Results are expressed as normalized cell proliferation±S.E.M.
CP9 had no effect on proliferation of normal MEFs. Since CP9 led to decrease in phosphorylated Akt (FIGS. 5A and 10A-10C), it was expected to inhibit glucose metabolism through relief of inhibition of glycogen synthase kinase […] (Nair & Olanow (2008) J. Biol. Chem. M707238200; Dandekar et al., (2007) J. Nucl. Med. 48: 602-607).
A general note: The colour change of resazurin is a common sign of viable cells or microbes.

Data set [5] has as its system 1975 lung cancer, 2008 ovarian cancer and HT29 colon cancer cells. The data set can be described thus: 3H-FDG cell uptake (glucose metabolism). It counts as cell-based. As to conditions: 24 h post treatment. As for the experimental part: (§1) FIG. 6B is a graph illustrating the effect of CP9 on glucose metabolism determined in 1975 lung cancer, 2008 ovarian cancer and HT29 colon cancer cells by ^3H-FDG cell uptake studies 24 h post treatment. Normal MEFs were used as a control. Results were expressed as mean counts/μg protein/initial dose±S.E.M. *, p<0.05 vs. carrier control treated cells.
Inhibition of glucose metabolism by CP9 in cell culture was monitored by cell uptake studies with ^3H-fluoro-deoxyglucose (^3H-FDG) as described in Dandekar et al. ((2007) J. Nucl. Med. 48: 602-607) as shown in FIG. 6B. PU-H71 was used as a positive control.
(§2) To determine the downstream effects of lead compounds on glucose metabolism, 1.5×10^5 293T, 1975 and 2008 and MEFs cells plated in 24-well plate for 24 h, prior to treatment with different concentrations of CP9 for 24 or 48 h and subsequent incubation with 1 μCi of ^3H-FDG in 500 μl of medium for 1 h at 37° C. Cells treated with 2.5 μM of PU-H71 served as a positive control. The total counts in each sample were normalized to that of the dose added to each well and to the amount of protein, and expressed as mean counts/dose/μg protein±S.E.M. Likewise, the effect of CP9 on cell proliferation was determined using 1 μCi of ^3H-FLT per well after 2 h of incubation at 37° C.

The subject of data set [6] is normal MEF cells. Description: 3H-FDG cell uptake (glucose metabolism). The format is cell-based, mouse. As to conditions: 24 h post treatment. Here is the method:
as §1
To determine the specificity of CP9 in inhibition of glucose metabolism, normal MEF cells were used as a control.
as §2

The nature of data set [7]: Body weight of treated mice. The format is in vivo. As to conditions: 43 h; P>0.05.
Data set [8] is described as follows: logP value (partition coefficient). It counts as physicochemical.

The source of these data is patent US20130310347A1, “MULTI-MODALITY MOLECULAR IMAGING HIGH-THROUGHPUT ASSAY FOR IDENTIFYING HEAT SHOCK PROTEIN 90 (HSP90) INHIBITORS” (The Board of Trustees of the Leland Stanford Junior …, priority 2012, published 2013).

Usually IC50 stands for the concentration at which inhibition is half-maximal. Low readings indicate inhibition by little substance, high ones a need for much substance. The term logP denotes a log measure of how a compound divides between an organic and an aqueous phase.

T1 sequence (P08238 whole entry): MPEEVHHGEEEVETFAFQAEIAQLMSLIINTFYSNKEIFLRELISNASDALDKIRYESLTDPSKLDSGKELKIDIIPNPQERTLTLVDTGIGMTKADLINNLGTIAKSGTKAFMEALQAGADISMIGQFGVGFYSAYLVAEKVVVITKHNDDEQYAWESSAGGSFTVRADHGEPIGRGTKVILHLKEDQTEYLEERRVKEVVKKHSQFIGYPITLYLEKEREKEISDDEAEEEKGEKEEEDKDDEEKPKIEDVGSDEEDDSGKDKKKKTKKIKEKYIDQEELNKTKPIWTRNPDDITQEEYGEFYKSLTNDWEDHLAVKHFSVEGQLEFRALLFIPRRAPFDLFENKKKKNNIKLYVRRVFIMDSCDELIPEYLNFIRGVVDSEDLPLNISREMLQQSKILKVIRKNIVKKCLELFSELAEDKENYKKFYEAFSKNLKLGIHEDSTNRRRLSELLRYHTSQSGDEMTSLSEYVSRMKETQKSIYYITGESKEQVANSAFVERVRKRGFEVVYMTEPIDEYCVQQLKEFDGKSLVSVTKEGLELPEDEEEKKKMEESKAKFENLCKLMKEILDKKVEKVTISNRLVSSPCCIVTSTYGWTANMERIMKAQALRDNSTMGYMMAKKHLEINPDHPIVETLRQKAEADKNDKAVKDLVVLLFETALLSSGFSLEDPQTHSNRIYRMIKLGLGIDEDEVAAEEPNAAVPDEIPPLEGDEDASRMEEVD

In data set [1], `Cc1cc(NC(=O)CSc2nc(-c3cccs3)cc(C(F)(F)F)n2)no1` [CP9, N-(5-methylisoxazol-3-yl)-2-(4-(thiophen-2-yl)-6-(trifluoromethyl)pyrimidin-2-ylthio)acetamide] came in with an IC50 of 15.3 µM. Moreover, the “disruption of endogenous Hsp90(α/β)/p23 interactions by co-immunoprecipitation” value in data set [2] was “disruption of endogenous Hsp90(α/β)/p23 interactions”. The “expression of Hsp90 client proteins” value in data set [3] is “no effect”. In addition, in data set [4], the “inhibition of cell proliferation vs PU-H71 and 17-AAG” value was “more effective than PU-H71 and 17-AAG”. In addition, the “3H-FDG uptake in the cancer cells” value in data set [5] was “decreased”. The “3H-FDG uptake in MEFs” value in data set [6] is on record as “without significantly affecting”. Also, the “body weight vs carrier control-treated mice” value in data set [7] is recorded as “no significant decreases in weight”. In addition, in data set [8], the logP was 4.1.
